Source: US20050192279A1, “Pyridazinones as antagonists of alpha4 integrins” (priority 2004, published 2005)

What follows are compounds tested against T1, human α4β7 integrin (Homo sapiens, UniProt P13612+P26010) (assay: α4β7-K562 Cell Adhesion Assay (α4β7 Mediated Adhesion/MAdCAM-1)). Conditions: α4β7-K562 cell adhesion to hMAdCAM-1; read-out: α4β7 IC50.
T1 construct: expressed in transfected cells; host or cells: K562 cells, stably transfected
T1 sequence (P13612 34-1032): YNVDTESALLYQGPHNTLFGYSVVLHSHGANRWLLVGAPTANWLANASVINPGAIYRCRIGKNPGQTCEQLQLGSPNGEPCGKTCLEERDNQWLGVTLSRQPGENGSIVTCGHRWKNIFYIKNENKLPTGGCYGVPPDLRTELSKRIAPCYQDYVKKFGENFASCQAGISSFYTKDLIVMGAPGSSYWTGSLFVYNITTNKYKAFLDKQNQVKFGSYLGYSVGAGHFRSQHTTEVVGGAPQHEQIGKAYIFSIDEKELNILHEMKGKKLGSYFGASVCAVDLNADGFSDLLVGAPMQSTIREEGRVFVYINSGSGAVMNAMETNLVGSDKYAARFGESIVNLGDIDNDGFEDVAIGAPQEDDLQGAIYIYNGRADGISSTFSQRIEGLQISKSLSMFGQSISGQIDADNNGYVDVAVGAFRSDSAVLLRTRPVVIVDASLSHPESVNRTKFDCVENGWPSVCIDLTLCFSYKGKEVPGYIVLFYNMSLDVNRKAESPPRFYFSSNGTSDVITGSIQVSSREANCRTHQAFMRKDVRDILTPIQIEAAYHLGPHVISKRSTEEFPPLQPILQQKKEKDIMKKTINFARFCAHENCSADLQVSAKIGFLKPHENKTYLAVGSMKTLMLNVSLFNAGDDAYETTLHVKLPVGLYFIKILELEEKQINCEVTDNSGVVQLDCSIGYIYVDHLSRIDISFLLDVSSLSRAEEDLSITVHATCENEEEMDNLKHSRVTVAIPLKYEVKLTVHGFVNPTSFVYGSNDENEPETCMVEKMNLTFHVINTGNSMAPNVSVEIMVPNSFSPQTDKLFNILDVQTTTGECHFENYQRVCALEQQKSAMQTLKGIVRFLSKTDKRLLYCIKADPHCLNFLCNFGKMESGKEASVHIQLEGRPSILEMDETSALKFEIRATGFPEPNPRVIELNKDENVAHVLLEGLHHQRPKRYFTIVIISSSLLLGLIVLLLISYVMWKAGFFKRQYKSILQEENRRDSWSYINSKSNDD
T1 sequence (P26010 20-798): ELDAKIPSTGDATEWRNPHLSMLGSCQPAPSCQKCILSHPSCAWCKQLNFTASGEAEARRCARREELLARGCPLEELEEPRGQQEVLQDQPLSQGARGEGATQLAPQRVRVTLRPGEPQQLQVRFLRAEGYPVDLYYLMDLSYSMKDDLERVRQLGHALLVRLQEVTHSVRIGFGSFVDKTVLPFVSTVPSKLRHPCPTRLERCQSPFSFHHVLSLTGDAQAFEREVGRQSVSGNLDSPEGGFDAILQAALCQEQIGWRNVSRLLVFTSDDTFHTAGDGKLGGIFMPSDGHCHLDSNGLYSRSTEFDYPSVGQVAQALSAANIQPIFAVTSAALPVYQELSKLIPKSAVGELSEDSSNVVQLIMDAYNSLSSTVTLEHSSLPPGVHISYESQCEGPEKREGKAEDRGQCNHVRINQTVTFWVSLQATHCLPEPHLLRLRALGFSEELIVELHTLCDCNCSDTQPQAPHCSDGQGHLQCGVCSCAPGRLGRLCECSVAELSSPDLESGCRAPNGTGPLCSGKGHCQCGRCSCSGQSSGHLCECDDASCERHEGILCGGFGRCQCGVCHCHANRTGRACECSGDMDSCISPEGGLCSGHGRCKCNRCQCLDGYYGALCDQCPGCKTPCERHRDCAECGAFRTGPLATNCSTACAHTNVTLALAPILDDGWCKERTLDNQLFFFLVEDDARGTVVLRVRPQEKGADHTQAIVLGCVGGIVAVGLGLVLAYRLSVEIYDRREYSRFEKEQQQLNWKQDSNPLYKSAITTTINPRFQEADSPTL
Format: cell-based
Outline: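 Anti-FLAG plates coated 1 h at 4° C with FLAG-hMAdCAM-1 in PBS pH 7.4, 1% BSA, 1 mM Mn2+. Stably transfected K562 cells expressing human α4β7, labelled with CFDA-SE, adhered with compound 1 h at room temperature. After four washes, bound cells lysed in 0.1 M NaOH for fluorescence read-out.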
Cn1ncc(N)c(-c2ccc(C[C@H](NC(=O)c3c(Cl)cccc3Cl)C(=O)O)cc2)c1=O [Cpd 46] gave an IC50 of 13 nM.
In the case of COc1cnn(C)c(=O)c1-c1ccc(C[C@H](NC(=O)[C@@H]2C3CCC(CC3)N2C(=O)CCc2ccccc2)C(=O)O)cc1 [Cpd 89, 3-[4-(5-Methoxy-2-methyl-3-oxo-2,3-dihydro-pyridazin-4-yl)-phenyl]-2(S)-{[2-(3-phenyl-propionyl)-2-aza-bicyclo[2.2.2]octane-3(S)-carbonyl]-amino}-propionic acid], the IC50 is reported as 47 nM.
Compound COC(=O)[C@H](Cc1ccc(-c2c(OC)cnn(C)c2=O)cc1)NC(=O)c1c(Cl)cccc1Cl [Cpd 151] has an IC50 of 274 nM.
In the case of O=C(N[C@@H](Cc1ccc(-c2c(OCC3CC3)cnn(CCO)c2=O)cc1)C(=O)O)c1c(Cl)cccc1Cl [Cpd 35], the IC50 is reported as 8 nM.
O=C(N[C@@H](Cc1ccc(-c2c(OCc3cccnc3)cnn(CCO)c2=O)cc1)C(=O)O)c1c(Cl)cccc1Cl [Cpd 30] showed an IC50 of 6 nM.
CNc1cnn(CC(C)=O)c(=O)c1-c1ccc(C[C@H](NC(=O)c2c(Cl)cccc2Cl)C(=O)O)cc1 [Cpd 18] gave an IC50 of 3 nM.
In the case of COc1cnn(CCO)c(=O)c1-c1ccc(C[C@H](NC(=O)OC(C)(C)C)C(=O)O)cc1 [Cpd 120], the IC50 is reported as 113 nM.
For O=C(N[C@@H](Cc1ccc(-c2c(N3CCOCC3)cnn(CCO)c2=O)cc1)C(=O)O)c1c(Cl)cccc1Cl [Cpd 61], the IC50 was 20 nM.
With COc1cnn(CCO)c(=O)c1-c1ccc(C[C@H](NC(=O)c2c(Cl)cccc2Cl)C(=O)O)cc1 [Cpd 15, (S)-2-(2,6-Dichloro-benzoylamino)-3{4-[2-(2-hydroxy-ethyl)-5-methoxy-3-oxo-2,3-dihydro-pyridazin-4-yl]-phenyl}-propionic acid] the IC50 was 2 nM.
With COc1cnn(CCN2CCOCC2)c(=O)c1-c1ccc(C[C@H](NC(=O)c2c(Cl)cccc2Cl)C(=O)O)cc1 [Cpd 10] the IC50 was 2 nM.
Compound COc1cnn(CCO)c(=O)c1-c1ccc(C[C@H](NC(=O)c2c(Cl)cccc2Cl)C(=O)OCCO)cc1 [Cpd 199] has an IC50 of 1370 nM.
With COc1cnn(CC(=O)O)c(=O)c1-c1ccc(C[C@H](NC(=O)c2c(Cl)cccc2Cl)C(=O)O)cc1 [Cpd 11] the IC50 was 2 nM.
Cn1ncc(N)c(-c2ccc(C[C@H](NC(=O)c3c(Cl)cccc3Cl)C(=O)OCCO)cc2)c1=O [Cpd 232] showed an IC50 of over 5000 nM.
For COc1cnn(CC(N)=O)c(=O)c1-c1ccc(C[C@H](NC(=O)c2c(Cl)cccc2Cl)C(=O)O)cc1 [Cpd 5], the IC50 was 1 nM.
With COc1cnn(C)c(=O)c1-c1ccc(C[C@H](NC(=O)c2c(Cl)cccc2Cl)C(=O)OCC(C)(C)C)cc1 [Cpd 207] the IC50 was 2690 nM.
